Results reported in patent publication US6465457B1 (priority 1991, dated 2002).
Like-named read-outs stand apart in the source and are kept apart here.

Columns and labels:
Format in all cases: in vivo
[1] = test system: Phytophthora infestans (Tomatoes); details: one or two days before inoculation
[2] = test system: Erysiphe graminis tritici (Wheat); test: Foliar fungal disease test on plants: Erysiphe graminis tritici (Wheat); details: plants inoculated 24 hours before treatment
[3] = test system: Plasmopara viticola (Vines); test: Foliar fungal disease test on plants: Plasmopara viticola (Vines); details: one or two days before inoculation
[4] = test system: Septoria nodorum (Wheat); test: Foliar fungal disease test on plants: Septoria nodorum (Wheat); details: one or two days before inoculation
[5] = test system: Pyricularia oryzae (Rice); details: one or two days before inoculation
[6] = test system: Venturia inaequalis (Apples); test: Foliar fungal disease test on plants: Venturia inaequalis (Apples); details: one or two days before inoculation
[7] = test system: Puccinia recondita (Wheat); test: Foliar fungal disease test on plants: Puccinia recondita (Wheat); details: plants inoculated with Puccinia recondita 48 hours before treatment
[8] = test system: Thanatephorus cucumeries (Rice); test: Foliar fungal disease test on plants: Thanatephorus cucumeries (Rice); details: one or two days before inoculation
[9] = 100 ppm a.i. foliar spray or root drench (approx. 40 ppm in dry soil)
[10] = 100 ppm a.i. foliar spray or root drench

With `COC=C(C(=O)OC)c1ccccc1COC(=O)N(C(C)=O)c1ccccc1Cl` [12 (99)] the “POCO (Percentage of Control) disease level, Phytophthora infestans (Tomatoes)” value [1, 9] was 90 (90 and 94 = 60.1-100% disease present), the “POCO (Percentage of Control) disease level, Erysiphe graminis tritici (Wheat)” value [2, 9] was 30 (30 = 20.1-30% disease present) and the “POCO (Percentage of Control) disease level, Plasmopara viticola (Vines)” value [3, 9] was 0 (0 = 0% disease present). The “POCO (Percentage of Control) disease level, Septoria nodorum (Wheat)” value [4, 9] was 10 (10 = 5.1-10% disease present), the “POCO (Percentage of Control) disease level, Pyricularia oryzae (Rice)” value [5, 9] was 10 (10 = 5.1-10% disease present) and the “POCO (Percentage of Control) disease level, Venturia inaequalis (Apples)” value [6, 9] was 5 (5 = 3.1-5% disease present). For the same molecule, the “POCO (Percentage of Control) disease level, Puccinia recondita (Wheat)” value [7, 10] was 30+ (30 = 20.1-30% disease present) and the “POCO (Percentage of Control) disease level, Thanatephorus cucumeries (Rice)” value [8, 9] was 90 (90 and 94 = 60.1-100% disease present).

With `COC=C(C(=O)OC)c1ccccc1COC(=O)N(C)c1ccc(F)cc1` [13 (2)] the “POCO (Percentage of Control) disease level, Phytophthora infestans (Tomatoes)” value [1, 9] was 0 (0 = 0% disease present), the “POCO (Percentage of Control) disease level, Erysiphe graminis tritici (Wheat)” value [2, 9] was 0 (0 = 0% disease present) and the “POCO (Percentage of Control) disease level, Plasmopara viticola (Vines)” value [3, 9] was 0 (0 = 0% disease present). For the same molecule, the “POCO (Percentage of Control) disease level, Septoria nodorum (Wheat)” value [4, 9] was 0 (0 = 0% disease present), the “POCO (Percentage of Control) disease level, Pyricularia oryzae (Rice)” value [5, 9] was 0 (0 = 0% disease present) and the “POCO (Percentage of Control) disease level, Venturia inaequalis (Apples)” value [6, 9] was 0 (0 = 0% disease present). For the same molecule, the “POCO (Percentage of Control) disease level, Puccinia recondita (Wheat)” value [7, 10] was 0+ (0 = 0% disease present) and the “POCO (Percentage of Control) disease level, Thanatephorus cucumeries (Rice)” value [8, 9] was 0 (0 = 0% disease present).

In the case of `CCN(C(=O)OCc1ccccc1C(=COC)C(=O)OC)c1ccc(F)cc1` [13 (3)], the “POCO (Percentage of Control) disease level, Phytophthora infestans (Tomatoes)” value [1, 9] is reported as 0 (0 = 0% disease present), the “POCO (Percentage of Control) disease level, Erysiphe graminis tritici (Wheat)” value [2, 9] is reported as 0 (0 = 0% disease present) and the “POCO (Percentage of Control) disease level, Plasmopara viticola (Vines)” value [3, 9] is reported as 0 (0 = 0% disease present). For the same molecule, the “POCO (Percentage of Control) disease level, Septoria nodorum (Wheat)” value [4, 9] was 0 (0 = 0% disease present), the “POCO (Percentage of Control) disease level, Pyricularia oryzae (Rice)” value [5, 9] was 0 (0 = 0% disease present) and the “POCO (Percentage of Control) disease level, Venturia inaequalis (Apples)” value [6, 9] was 0 (0 = 0% disease present). For the same molecule, the “POCO (Percentage of Control) disease level, Puccinia recondita (Wheat)” value [7, 10] was 0+ (0 = 0% disease present) and the “POCO (Percentage of Control) disease level, Thanatephorus cucumeries (Rice)” value [8, 9] was 0 (0 = 0% disease present).

`COC=C(C(=O)OC)c1ccccc1COC(=O)Nc1ccccc1OC` [16 (1)] was tested, and the “POCO (Percentage of Control) disease level, Phytophthora infestans (Tomatoes)” value [1, 9] was 90 (90 and 94 = 60.1-100% disease present), the “POCO (Percentage of Control) disease level, Erysiphe graminis tritici (Wheat)” value [2, 9] was 90 (90 and 94 = 60.1-100% disease present) and the “POCO (Percentage of Control) disease level, Plasmopara viticola (Vines)” value [3, 9] was 0 (0 = 0% disease present). For the same molecule, the “POCO (Percentage of Control) disease level, Septoria nodorum (Wheat)” value [4, 9] was 90 (90 and 94 = 60.1-100% disease present), the “POCO (Percentage of Control) disease level, Pyricularia oryzae (Rice)” value [5, 9] was 20 (20 and 24 = 10.1-20% disease present) and the “POCO (Percentage of Control) disease level, Venturia inaequalis (Apples)” value [6, 9] was 60 (60 = 30.1-60% disease present). The “POCO (Percentage of Control) disease level, Puccinia recondita (Wheat)” value [7, 10] was 90+ (90 and 94 = 60.1-100% disease present) and the “POCO (Percentage of Control) disease level, Thanatephorus cucumeries (Rice)” value [8, 9] was 90 (90 and 94 = 60.1-100% disease present).

`COC=C(C(=O)OC)c1ccccc1COC(=O)N(C)c1ccccc1OC` [16 (2)] was tested, and the “POCO (Percentage of Control) disease level, Phytophthora infestans (Tomatoes)” value [1, 9] was 20 (20 and 24 = 10.1-20% disease present), the “POCO (Percentage of Control) disease level, Erysiphe graminis tritici (Wheat)” value [2, 9] was 0 (0 = 0% disease present) and the “POCO (Percentage of Control) disease level, Plasmopara viticola (Vines)” value [3, 9] was 0 (0 = 0% disease present). The “POCO (Percentage of Control) disease level, Septoria nodorum (Wheat)” value [4, 9] was 5 (5 = 3.1-5% disease present), the “POCO (Percentage of Control) disease level, Pyricularia oryzae (Rice)” value [5, 9] was 0 (0 = 0% disease present) and the “POCO (Percentage of Control) disease level, Venturia inaequalis (Apples)” value [6, 9] was 1 (1 = 0.1-1% disease present). For the same molecule, the “POCO (Percentage of Control) disease level, Puccinia recondita (Wheat)” value [7, 10] was 10+ (10 = 5.1-10% disease present) and the “POCO (Percentage of Control) disease level, Thanatephorus cucumeries (Rice)” value [8, 9] was 5 (5 = 3.1-5% disease present).

With `C#CCN(C(=O)OCc1ccccc1C(=COC)C(=O)OC)c1ccccc1OC` [16 (15)] the “POCO (Percentage of Control) disease level, Phytophthora infestans (Tomatoes)” value [1, 9] was 5 (5 = 3.1-5% disease present), the “POCO (Percentage of Control) disease level, Erysiphe graminis tritici (Wheat)” value [2, 9] was 0 (0 = 0% disease present) and the “POCO (Percentage of Control) disease level, Plasmopara viticola (Vines)” value [3, 9] was 0 (0 = 0% disease present). The “POCO (Percentage of Control) disease level, Septoria nodorum (Wheat)” value [4, 9] was 10 (10 = 5.1-10% disease present), the “POCO (Percentage of Control) disease level, Pyricularia oryzae (Rice)” value [5, 9] was 0 (0 = 0% disease present) and the “POCO (Percentage of Control) disease level, Venturia inaequalis (Apples)” value [6, 9] was 1 (1 = 0.1-1% disease present). For the same molecule, the “POCO (Percentage of Control) disease level, Puccinia recondita (Wheat)” value [7, 10] was 60+ (60 = 30.1-60% disease present) and the “POCO (Percentage of Control) disease level, Thanatephorus cucumeries (Rice)” value [8, 9] was 0 (0 = 0% disease present).

For `COC=C(C(=O)OC)c1ccccc1COC(=O)Nc1ccccc1C(F)(F)F` [18 (1)], the “POCO (Percentage of Control) disease level, Phytophthora infestans (Tomatoes)” value [1, 9] was 90 (90 and 94 = 60.1-100% disease present), the “POCO (Percentage of Control) disease level, Erysiphe graminis tritici (Wheat)” value [2, 9] was 90 (90 and 94 = 60.1-100% disease present) and the “POCO (Percentage of Control) disease level, Plasmopara viticola (Vines)” value [3, 9] was 0 (0 = 0% disease present). For the same molecule, the “POCO (Percentage of Control) disease level, Septoria nodorum (Wheat)” value [4, 9] was 90 (90 and 94 = 60.1-100% disease present), the “POCO (Percentage of Control) disease level, Pyricularia oryzae (Rice)” value [5, 9] was 60 (60 = 30.1-60% disease present) and the “POCO (Percentage of Control) disease level, Venturia inaequalis (Apples)” value [6, 9] was 3 (3 = 1.1-3% disease present). The “POCO (Percentage of Control) disease level, Puccinia recondita (Wheat)” value [7, 10] was 90+ (90 and 94 = 60.1-100% disease present) and the “POCO (Percentage of Control) disease level, Thanatephorus cucumeries (Rice)” value [8, 9] was 90 (90 and 94 = 60.1-100% disease present).

With `COC=C(C(=O)OC)c1ccccc1COC(=O)N(C)c1ccccc1C(F)(F)F` [18 (2)] the “POCO (Percentage of Control) disease level, Phytophthora infestans (Tomatoes)” value [1, 9] was 90 (90 and 94 = 60.1-100% disease present), the “POCO (Percentage of Control) disease level, Erysiphe graminis tritici (Wheat)” value [2, 9] was 60 (60 = 30.1-60% disease present) and the “POCO (Percentage of Control) disease level, Plasmopara viticola (Vines)” value [3, 9] was 3 (3 = 1.1-3% disease present). For the same molecule, the “POCO (Percentage of Control) disease level, Septoria nodorum (Wheat)” value [4, 9] was 90 (90 and 94 = 60.1-100% disease present), the “POCO (Percentage of Control) disease level, Pyricularia oryzae (Rice)” value [5, 9] was 60 (60 = 30.1-60% disease present) and the “POCO (Percentage of Control) disease level, Venturia inaequalis (Apples)” value [6, 9] was 3 (3 = 1.1-3% disease present). The “POCO (Percentage of Control) disease level, Puccinia recondita (Wheat)” value [7, 10] was 90+ (90 and 94 = 60.1-100% disease present) and the “POCO (Percentage of Control) disease level, Thanatephorus cucumeries (Rice)” value [8, 9] was 60 (60 = 30.1-60% disease present).

`C=CCNC(=O)OCc1ccccc1C(=COC)C(=O)OC` [20 (1)] was tested, and the “POCO (Percentage of Control) disease level, Phytophthora infestans (Tomatoes)” value [1, 9] was 60 (60 = 30.1-60% disease present), the “POCO (Percentage of Control) disease level, Erysiphe graminis tritici (Wheat)” value [2, 9] was 20 (20 and 24 = 10.1-20% disease present) and the “POCO (Percentage of Control) disease level, Plasmopara viticola (Vines)” value [3, 9] was 90 (90 and 94 = 60.1-100% disease present). For the same molecule, the “POCO (Percentage of Control) disease level, Septoria nodorum (Wheat)” value [4, 9] was 90 (90 and 94 = 60.1-100% disease present), the “POCO (Percentage of Control) disease level, Pyricularia oryzae (Rice)” value [5, 9] was 20 (20 and 24 = 10.1-20% disease present) and the “POCO (Percentage of Control) disease level, Venturia inaequalis (Apples)” value [6, 9] was 5 (5 = 3.1-5% disease present). For the same molecule, the “POCO (Percentage of Control) disease level, Puccinia recondita (Wheat)” value [7, 10] was 3+ (3 = 1.1-3% disease present) and the “POCO (Percentage of Control) disease level, Thanatephorus cucumeries (Rice)” value [8, 9] was 90 (90 and 94 = 60.1-100% disease present).

`COC=C(C(=O)OC)c1ccccc1COC(=O)N(C)c1ccccc1SC` [21 (2)] was tested, and the “POCO (Percentage of Control) disease level, Phytophthora infestans (Tomatoes)” value ([1]; 10 ppm foliar spray only) was 90 (90 and 94 = 60.1-100% disease present), the “POCO (Percentage of Control) disease level, Erysiphe graminis tritici (Wheat)” value ([2]; 10 ppm foliar spray only) was 90 (90 and 94 = 60.1-100% disease present) and the “POCO (Percentage of Control) disease level, Plasmopara viticola (Vines)” value ([3]; 10 ppm foliar spray only) was 0 (0 = 0% disease present). The “POCO (Percentage of Control) disease level, Septoria nodorum (Wheat)” value ([4]; 10 ppm foliar spray only) was 60 (60 = 30.1-60% disease present), the “POCO (Percentage of Control) disease level, Pyricularia oryzae (Rice)” value ([5]; 10 ppm foliar spray only) was 30 (30 = 20.1-30% disease present) and the “POCO (Percentage of Control) disease level, Venturia inaequalis (Apples)” value ([6]; 10 ppm foliar spray only) was 60 (60 = 30.1-60% disease present). The “POCO (Percentage of Control) disease level, Puccinia recondita (Wheat)” value ([7]; 10 ppm foliar spray only) was 90+ (90 and 94 = 60.1-100% disease present) and the “POCO (Percentage of Control) disease level, Thanatephorus cucumeries (Rice)” value ([8]; 10 ppm foliar spray only) was 90 (90 and 94 = 60.1-100% disease present).

With `COC=C(C(=O)OC)c1ccccc1COC(=O)Nc1c(F)cccc1F` [23 (1)] the “POCO (Percentage of Control) disease level, Phytophthora infestans (Tomatoes)” value [1, 9] was 90 (90 and 94 = 60.1-100% disease present), the “POCO (Percentage of Control) disease level, Erysiphe graminis tritici (Wheat)” value [2, 9] was 0 (0 = 0% disease present) and the “POCO (Percentage of Control) disease level, Plasmopara viticola (Vines)” value [3, 9] was 0 (0 = 0% disease present). For the same molecule, the “POCO (Percentage of Control) disease level, Septoria nodorum (Wheat)” value [4, 9] was 30 (30 = 20.1-30% disease present), the “POCO (Percentage of Control) disease level, Pyricularia oryzae (Rice)” value [5, 9] was 30 (30 = 20.1-30% disease present) and the “POCO (Percentage of Control) disease level, Venturia inaequalis (Apples)” value [6, 9] was 0 (0 = 0% disease present). The “POCO (Percentage of Control) disease level, Puccinia recondita (Wheat)” value [7, 10] was 30+ (30 = 20.1-30% disease present) and the “POCO (Percentage of Control) disease level, Thanatephorus cucumeries (Rice)” value [8, 9] was 0 (0 = 0% disease present).
